{"source": "patent US5998366A", "about": "“Method for ameliorating glutamic acid decarboxylase associated autoimmune disorders” (The Regents of the University of California, priority 1997, dated 1999)", "key": {"[1]": {"system": "spleen cells of treated female NOD mice", "assay": "Proliferative splenic T-cell responses to antigens after tolerance induction", "assay_type": "in vivo", "conditions": "Table 8A: i.v. at 3 weeks, tested at 12 weeks"}, "[2]": {"system": "spleen cells of treated female NOD mice", "assay": "Proliferative splenic T-cell responses to antigens after tolerance induction", "assay_type": "in vivo", "description": "(§1) NOD (Taconic farms) and BALB/c mice (Jackson Laboratories) were kept under specific pathogen free conditions. The mice were sacrificed at the ages indicated and the spleen cells were tested directly ex vivo for their proliferative recall response to antigen. Single cell suspensions of spleen cells were plated at 1×10^6 cells per well in 96 well microtiter plates in 200 μl serum free HL-1 medium (Ventrex) that was supplemented with 2 mM glutamine with or without 10 μg/ml antigen (or 7 μM peptide) in triplicate cultures. During the last 16 h of the 72 h culture period, 1 μCi[^3 H]-thymidine was added per well. Incorporation of label was measured by liquid scintillation counting.\n1. In these experiments female NOD mice were intravenously injected at 3 weeks of age with 50 μg GAD, μ-galactosidase, mycobacterial hsp65 (m-hsp) or 0.1 μg of the immunodominant hsp peptide (hsp-p), in PBS. At 12 weeks of age, mice were examined for insulitis and autoantigen reactive T-cells. At this age both indications are established in untreated NOD mice. Pancreatic tissue sections were stained by immunoperoxidase techniques for insulin and were counterstained with hematoxylin. Insulitis was scored in a blinded manner by examining 54 to 87 islets on 5 interrupted tissue sections from each pancreas. […] Data in Table 8 are expressed as the average [^3 H]-thymidine label (cpm) incorporated in triplicate cultures. […]"}, "spleen cells of NOD mice": {"system": "spleen cells of NOD mice", "assay": "Proliferative recall response of spleen cells to β-cell antigens, by age", "assay_type": "cell-based", "description": "as §1\nBoth human GAD65 (Bu, et al., Proc. Natl. Acad. Sci., 89:2115-2119, 1992) and E. coli β-gal (control) were purified from recombinant bacteria on the basis of a hexahistidine tag which allows their rapid affinity purification by metal affinity chromatography (Hochuli, et al., Bio/Technology, 6:1321-1325, 1988). Bovine CPH was the generous gift of L. Fricker (Albert Einstein Col. Med.) and human insulin was purchased from Eli Lilly."}}, "data": [{"substance": "GAD: human GAD65 purified from recombinant bacteria on the basis of a hexahistidine tag", "values": [{"measurement": "Spleen Cell Proliferation (SI ± SEM) CPH", "setting": "[1]; recall antigen CPH", "value": "1.1 ± 0.02", "unit": "SI"}, {"measurement": "Spleen Cell Proliferation (SI ± SEM) GAD", "setting": "[1]; recall antigen GAD", "value": "1.6 ± 0.3", "unit": "SI"}, {"measurement": "Spleen Cell Proliferation (SI ± SEM) GAD Peptides #17", "setting": "[1]; recall antigen GAD peptide #17", "value": "1.0 ± 0.05", "unit": "SI"}, {"measurement": "Spleen Cell Proliferation (SI ± SEM) GAD Peptides #34", "setting": "[1]; recall antigen GAD peptide #34", "value": "1.2 ± 0.1", "unit": "SI"}, {"measurement": "Spleen Cell Proliferation (SI ± SEM) GAD Peptides #35", "setting": "[1]; recall antigen GAD peptide #35", "value": "1.0 ± 0.1", "unit": "SI"}, {"measurement": "Spleen Cell Proliferation (SI ± SEM) hsp Peptide", "setting": "[1]; recall antigen hsp peptide", "value": "1.2 ± 0.1", "unit": "SI"}, {"measurement": "Spleen Cell Proliferation (SI ± SEM) β-Gal", "setting": "[1]; recall antigen β-Gal", "value": "1.1 ± 0.03", "unit": "SI"}, {"measurement": "share of treated mice with no T-cell reactivity to GAD (complete tolerization) or to other βCAs", "setting": "[2]; i.v. at 3 weeks, tested at 12 weeks", "value": "Seventy five percent"}, {"measurement": "weak residual GAD reactivity of the mice not completely tolerized", "setting": "[2]; twenty five percent of the GAD-treated mice", "value": "about 3 SI"}, {"measurement": "T cell proliferation in non-diseased spleen cells", "setting": "spleen cells of NOD mice; <4 or >16 week old NOD or control BALB/c or (NOD/BALB/c)F1 spleen cells", "value": "did not induce T cell proliferation"}, {"measurement": "age at which the proliferative T-cell response to the antigen appeared", "setting": "spleen cells of NOD mice; female NOD mice, 10 μg/ml antigen or 7 μM peptide, 72 h culture (FIG. 8)", "value": 4, "unit": "weeks"}]}]}
